{
  "source": "PubChem BioAssay AID179",
  "about": "(DTP/NCI, 2004)",
  "system": "CEM cells HIV-1 protection, formazan growth assay",
  "test": "NCI AIDS Antiviral Assay",
  "details": "for IC50: measured here: growth of uninfected CEM cells",
  "outline": "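Protection of CEM cells against HIV-1 was scored from cell growth (soluble formazan) across five concentrations, with parallel uninfected cells. Lack of protection may reflect toxicity.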",
  "note": "Calls of active or inactive are those of the source.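 The calls were made as follows: active = compounds giving half or more protection of infected cells from virus-caused growth loss, again on retest; inactive = the rest.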",
  "data": [
    {"smiles": "CN1CCn2c(Br)ccc2C1=O", "values": [
      {"measurement": "EC50", "result": "> 1100", "unit": "µM"},
      {"measurement": "IC50", "result": 64.6, "unit": "µM"}
    ]},
    {"smiles": "CC1(C)Oc2cc(OCc3ccccc3)ccc2C2Oc3cc(OCc4ccccc4)c(O)cc3C21", "note": "(stereo unspecified)", "values": [
      {"measurement": "EC50", "result": "> 200", "unit": "µM"},
      {"measurement": "IC50", "result": 79.4, "unit": "µM"}
    ]},
    {"smiles": "CCOC(=O)C1=C(C)NC(=O)NC1c1ccccc1", "note": "(stereo unspecified)", "values": [
      {"measurement": "EC50", "result": "> 200", "unit": "µM"},
      {"measurement": "IC50", "result": "> 200", "unit": "µM"}
    ]},
    {"smiles": "CCCNCCOc1nc(Cl)c(Cl)cc1Cl", "values": [
      {"measurement": "EC50", "result": "> 200", "unit": "µM"},
      {"measurement": "IC50", "result": 126, "unit": "µM"}
    ]},
    {"smiles": "CC(=O)OC1C[C@@H](C)C2(CC(c3ccoc3)OC2=O)C2CCC(O)C3(CO3)C12CO", "note": "(stereo partly specified)", "values": [
      {"measurement": "EC50", "result": "> 200", "unit": "µM"},
      {"measurement": "IC50", "result": "> 200", "unit": "µM"}
    ]},
    {"smiles": "c1ccc(C2OCCO2)c(OCCOc2cc(OCCOc3ccccc3C3OCCO3)c(OCCOc3ccccc3C3OCCO3)cc2OCCOc2ccccc2C2OCCO2)c1", "values": [
      {"measurement": "EC50", "result": "> 7.94", "unit": "µM"},
      {"measurement": "IC50", "result": "> 7.94", "unit": "µM"}
    ]},
    {"smiles": "CCN(CC)C1=CC(=O)c2nc(C)c(C)nc2C1=O", "values": [
      {"measurement": "outcome", "result": "inactive"}
    ]},
    {"smiles": "N#CC1(C#N)C=CC(=C2OCC3CCCN23)C=C1", "note": "(stereo unspecified)", "values": [
      {"measurement": "outcome", "result": "inactive"}
    ]},
    {"smiles": "O=C1OC(=O)c2c1ccc1ccc(Cl)cc21", "values": [
      {"measurement": "outcome", "result": "inactive"}
    ]},
    {"smiles": "C/C(=N/OC(=O)N(C)C)c1cc(Cl)ccc1Cl", "values": [
      {"measurement": "EC50", "result": "> 200", "unit": "µM"},
      {"measurement": "IC50", "result": 135, "unit": "µM"}
    ]},
    {"smiles": "O=C1OCCOCCOCCOC(=O)c2ccccc2SSc2ccccc21", "values": [
      {"measurement": "EC50", "result": "> 200", "unit": "µM"},
      {"measurement": "IC50", "result": 33.9, "unit": "µM"}
    ]},
    {"smiles": "Oc1ccc(Cc2nccc3cc(O)c(O)cc23)cc1O", "values": [
      {"measurement": "EC50", "result": "> 200", "unit": "µM"},
      {"measurement": "IC50", "result": 29.5, "unit": "µM"}
    ]},
    {"smiles": "N#Cc1c(/N=C/c2ccccc2Cl)sc2c1CCC2", "values": [
      {"measurement": "EC50", "result": "> 200", "unit": "µM"},
      {"measurement": "IC50", "result": "> 200", "unit": "µM"}
    ]},
    {"smiles": "CCCCCCCCCCC(C)CCCCCCC(=O)O", "note": "(stereo unspecified)", "values": [
      {"measurement": "outcome", "result": "inactive"}
    ]},
    {"smiles": "CCN(CC)CN1C(=O)C(=O)c2ccccc21", "values": [
      {"measurement": "EC50", "result": "> 200", "unit": "µM"},
      {"measurement": "IC50", "result": "> 200", "unit": "µM"}
    ]},
    {"smiles": "CNc1nnc(CCCCCCCCc2nnc(NC)o2)o1", "values": [
      {"measurement": "EC50", "result": "> 200", "unit": "µM"},
      {"measurement": "IC50", "result": 11.5, "unit": "µM"}
    ]},
    {"smiles": "CCNc1cc2c(cc1O)CC[C@@H]1[C@@H]2CC[C@]2(C)[C@@H](O)CC[C@@H]12", "values": [
      {"measurement": "EC50", "result": "> 200", "unit": "µM"},
      {"measurement": "IC50", "result": 3.89, "unit": "µM"}
    ]},
    {"smiles": "COc1cc(/C=C2\\CCc3ccccc3C2=O)ccc1O", "values": [
      {"measurement": "EC50", "result": "> 200", "unit": "µM"},
      {"measurement": "IC50", "result": 9.33, "unit": "µM"}
    ]},
    {"smiles": "CC(C)C1CNC(=O)C2(C=NC(C(C)C)CNC(=O)C3(C=N1)CCCO3)CCCO2", "note": "(stereo unspecified)", "values": [
      {"measurement": "EC50", "result": "> 12.3", "unit": "µM"},
      {"measurement": "IC50", "result": "> 12.3", "unit": "µM"}
    ]},
    {"smiles": "CCOC(=O)CCC1(CCC(=O)OCC)CCCCCCCCC(CCC(=O)OCC)(CCC(=O)OCC)C(=O)C1=O", "values": [
      {"measurement": "EC50", "result": "> 200", "unit": "µM"},
      {"measurement": "IC50", "result": "> 200", "unit": "µM"}
    ]},
    {"smiles": "O=C1C=C2C3c4c(cc(O)cc4C4c5c(O)cc6c(c5[C@@H]5C(c7ccc(O)cc7)C1C(=O)[C@@]25[C@@H]4c1ccc(O)cc1)[C@@H](c1cc(O)cc(O)c1)[C@H](c1ccc(O)cc1)O6)O[C@H]3c1ccc(O)cc1", "note": "(stereo partly specified)", "values": [
      {"measurement": "EC50", "result": "> 15.8", "unit": "µM"},
      {"measurement": "IC50", "result": 10.7, "unit": "µM"}
    ]},
    {"smiles": "COc1cc(O)c(C(=O)C2Cc3ccccc32)c(OC)c1", "note": "(stereo unspecified)", "values": [
      {"measurement": "outcome", "result": "inactive"}
    ]},
    {"smiles": "N#CCC(=O)N/N=C\\C(O)C(O)C(O)C(O)CO", "note": "(stereo unspecified)", "values": [
      {"measurement": "outcome", "result": "inactive"}
    ]},
    {"smiles": "C[C@H]1CCC2C(OC(=O)[C@@H]2CN(C)C)[C@]2(C)C(=O)C=CC12O", "note": "(stereo partly specified)", "values": [
      {"measurement": "outcome", "result": "inactive"}
    ]},
    {"smiles": "O=C1OC(c2ccccc2)=N/C1=C\\c1ccc(Oc2ccc(Cl)c(Cl)c2)cc1", "values": [
      {"measurement": "EC50", "result": "> 2.51", "unit": "µM"},
      {"measurement": "IC50", "result": "> 2.51", "unit": "µM"}
    ]},
    {"smiles": "CCSC(CCC(NC(C)=O)C(=O)O)SCC", "note": "(stereo unspecified)", "values": [
      {"measurement": "EC50", "result": "> 200", "unit": "µM"},
      {"measurement": "IC50", "result": "> 200", "unit": "µM"}
    ]},
    {"smiles": "CCc1cc(CCC(=O)Nc2c(C)cccc2C)nc(NC#N)n1", "values": [
      {"measurement": "outcome", "result": "inactive"}
    ]},
    {"smiles": "CC(=O)/C(=C/c1cccc(C#N)c1)C(=O)c1ccccc1", "values": [
      {"measurement": "EC50", "result": "> 36.3", "unit": "µM"},
      {"measurement": "IC50", "result": 17.4, "unit": "µM"}
    ]},
    {"smiles": "CC1(C)CC(=O)C2=C(C1)OC1(CC2c2ccc(Cl)cc2)CC(c2ccc(Cl)cc2)C2=C(CC(C)(C)CC2=O)O1", "note": "(stereo unspecified)", "values": [
      {"measurement": "EC50", "result": "> 100", "unit": "µM"},
      {"measurement": "IC50", "result": 15.1, "unit": "µM"}
    ]},
    {"smiles": "CC(C)C(=O)/C=C/c1ccc(Cl)cc1Cl", "values": [
      {"measurement": "outcome", "result": "inactive"}
    ]},
    {"smiles": "CCOC(=O)CN(c1scc(-c2ccccc2)c1C(=O)OCC)S(=O)(=O)c1ccc(C)cc1", "values": [
      {"measurement": "EC50", "result": "> 200", "unit": "µM"},
      {"measurement": "IC50", "result": 9.33, "unit": "µM"}
    ]},
    {"smiles": "O=C1N=C(SC(SC2=NC(=O)C3(NN2)c2ccccc2-c2ccccc23)=C(SC2=NC(=O)C3(NN2)c2ccccc2-c2ccccc23)SC2=NC(=O)C3(NN2)c2ccccc2-c2ccccc23)NNC12c1ccccc1-c1ccccc12", "values": [
      {"measurement": "EC50", "result": "> 91.2", "unit": "µM"},
      {"measurement": "IC50", "result": 42.7, "unit": "µM"}
    ]},
    {"smiles": "COc1c2c(c3c(c1C1OC(C)[C@@H](C)O1)CC(C)(C)O3)C(=O)c1ccccc1C2=O", "note": "(stereo partly specified)", "values": [
      {"measurement": "EC50", "result": "> 63.1", "unit": "µM"},
      {"measurement": "IC50", "result": "> 63.1", "unit": "µM"}
    ]},
    {"smiles": "CC(=O)C(=Cc1cccc(C)c1)C(C)=O", "values": [
      {"measurement": "EC50", "result": "> 339", "unit": "µM"},
      {"measurement": "IC50", "result": 17.8, "unit": "µM"}
    ]},
    {"smiles": "O=C1C(=O)C(c2ccccc2)Oc2ccccc21", "note": "(stereo unspecified)", "values": [
      {"measurement": "EC50", "result": "> 200", "unit": "µM"},
      {"measurement": "IC50", "result": 25.1, "unit": "µM"}
    ]}
  ]
}
